US20040023886A1, “Method for treating neurological conditions and inducing immunosuppression with cephaibols” (Aventis Pharma Deutschland Gmbh, priority 2002, published 2004)
“Also recorded” adds a separate entry of the source. Where a SMILES comes first, the peptide text is derived from it. [ ]: non-standard residue; d: D form. Hyp = O=C(O)[CH]1C[CH](O)CN1; Phe(ol) = N[CH](CO)Cc1ccccc1; Iva = CC[C](C)(N)C(=O)O; Aib = CC(C)(N)C(=O)O

Columns and labels:
[1] = test system: laboratory mice; assay: Influence on spontaneous motility (neuroleptic effect, mouse model); type: in vivo; conditions: 10 mg/kg intraperitoneal, observed from 5 min up to 24 hours
Method: (§1) Neuroleptic effect of the cephaibols in the mouse model
The influence of cephaibols A, B, C, D and E on motoricity in laboratory mice was observed over various periods of time (from 5 min up to 24 hours).
Fright reactions (noises) were retained, thereby ruling out the possibility of the cephaibols having a narcotic effect in the experimental arrangement.

[2] = test system: laboratory mice; assay: Hypothermia (neuroleptic effect, mouse model); type: in vivo; conditions: 10 mg/kg intraperitoneal
Text: as §1

[3] = test system: Phoma destructiva; assay: Induction of pigment formation in Phoma destructiva, punched-hole plate agar diffusion test; type: cell-based; conditions: 50 µL of test solution per hole, 20 to 25° C., 4 to 5 days
Text: The induction of pigment formation in the fungus Phoma destructiva is a test model for, inter alia, identifying a potential immunosuppressant effect in test substances. The implementation of the Phoma destructiva test has been described by K. Dornberger et al. in J. Antibiotics, §, 977-989,1995.
The organism Phoma destructiva is a fungus which is known to be pathogenic to plants and which grows, in feebly colored colonies, on agar plates which have been inoculated with vegetative mycelium. Cell differentiation processes, which are accompanied by the formation of a pigment and therefore enable cell differentiation to be detected, are initiated under the influence of special inducers. The pigment, which is a melanin-like substance, can be recognized by its color and quantified photometrically or by measuring the zone size.
The fungus Phoma destructiva was cultured on sloping agar tubes containing culture medium A or B at from 20 to 25° C. and then stored at from 4 to 6° C. and reinoculated in a 2-year rhythm.
The fungus Phoma destructiva was cultured at from 20 to 25° C. for 11 days on medium B in 100 mm diameter petri dishes and, after that, washed off with 10 ml of a sterile 0.9% solution of NaCl. The wash-off can be used for 5 days when stored at 8° C.
The agar diffusion test method was a modification of the standardized agar diffusion assay described in the European Pharmacopoeia [Deutscher Apothekerverlag Stuttgart, pages 113-118, 1997]: 40 mL of test agar medium were liquefied and brought to a constant temperature of 50° C.; from 8 to 10 mL of the inoculation culture were added under sterile conditions and the mixture was then poured into 150 mm diameter test plates. After the plates had cooled, 12 punched holes of 9 mm in diameter were arranged on the plate using a punching implement [J, V. Benett et al. Appl. Micr.1.1;, 170-177, 1966]. The test holes were loaded with 50JiL of the solution to be tested, with one test hole containing cyclosporin as the control substance (1 μg of cyclosporin A in 50 μL of methanol). […]

[4] = test system: platelet aggregation; conditions: literature; cited from earlier work

Compound	motoricity (climbing) in comparison with the control mice [1]	body temperature as compared with the control animals [2]	pigment formation in Phoma destructiva [3]	platelet aggregation [4]
CCC(C)(NC(=O)C(CC(C)C)NC(=O)CNC(=O)C(C)(C)NC(=O)C(C)(C)NC(=O)C(C)(C)NC(=O)C(C)(C)NC(=O)C(Cc1ccccc1)NC(C)=O)C(=O)NC(C)(C)C(=O)N1CC(O)CC1C(=O)NC(CCC(N)=O)C(=O)NC(C)(CC)C(=O)N1CC(O)CC1C(=O)NC(C)(C)C(=O)N1CCCC1C(=O)NC(CO)Cc1ccccc1 (stereo not drawn) [cephaibol A, AcPhe-Aib-Aib-Aib-Aib-Gly-Leu-Iva-Aib-Hyp-Gln-Iva-Hyp-Aib-Pro-Phe-ol] (Ac-F[Aib][Aib][Aib][Aib]GL[Iva][Aib][Hyp]Q[Iva][Hyp][Aib]P[Phe(ol)]; configuration not given here)	impaired	marked reduction	particularly pronounced	
CCC(C)(NC(=O)C(CC(C)C)NC(=O)CNC(=O)C(C)(CC)NC(=O)C(C)(C)NC(=O)C(C)(C)NC(=O)C(C)(C)NC(=O)C(Cc1ccccc1)NC(C)=O)C(=O)NC(C)(C)C(=O)N1CC(O)CC1C(=O)NC(CCC(N)=O)C(=O)NC(C)(CC)C(=O)N1CC(O)CC1C(=O)NC(C)(C)C(=O)N1CCCC1C(=O)NC(CO)Cc1ccccc1 (stereo not drawn) [cephaibol B, AcPhe-Aib-Aib-Aib-Iva-Gly-Leu-Iva-Aib-Hyp-Gln-Iva-Hyp-Aib-Pro-Phe-ol] (Ac-F[Aib][Aib][Aib][Iva]GL[Iva][Aib][Hyp]Q[Iva][Hyp][Aib]P[Phe(ol)]; configuration not given here)	impaired; also recorded: particularly pronounced	marked reduction; also recorded: particularly pronounced	particularly pronounced	
CCC(C)(NC(=O)C(CC(C)C)NC(=O)CNC(=O)C(C)(C)NC(=O)C(C)(C)NC(=O)C(C)(C)NC(=O)C(C)(C)NC(=O)C(Cc1ccccc1)NC(C)=O)C(=O)NC(C)(C)C(=O)N1CC(O)CC1C(=O)NC(CCC(N)=O)C(=O)NC(C)(C)C(=O)N1CC(O)CC1C(=O)NC(C)(C)C(=O)N1CCCC1C(=O)NC(CO)Cc1ccccc1 (stereo not drawn) [cephaibol C, AcPhe-Aib-Aib-Aib-Aib-Gly-Leu-Iva-Aib-Hyp-Gln-Aib-Hyp-Aib-Pro-Phe-ol] (Ac-F[Aib][Aib][Aib][Aib]GL[Iva][Aib][Hyp]Q[Aib][Hyp][Aib]P[Phe(ol)]; configuration not given here)	impaired; also recorded: particularly pronounced	marked reduction; also recorded: particularly pronounced	particularly pronounced	
CCC(C)(NC(=O)C(CC(C)C)NC(=O)CNC(=O)C(C)(C)NC(=O)C(C)(C)NC(=O)C(C)(C)NC(=O)C(C)(C)NC(=O)C(Cc1ccccc1)NC(C)=O)C(=O)NC(C)(C)C(=O)N1CC(O)CC1C(=O)NC(CCC(N)=O)C(=O)NC(C)(C)C(=O)N1CC(O)CC1C(=O)NC(C)(C)C(=O)N1CCCC1C(=O)NC(CO)Cc1ccccc1 (stereo not drawn) [cephaibol D, AcPhe-Aib-Aib-Aib-Aib-Gly-Leu-Aib-Aib-Hyp-Gln-Aib-Hyp-Aib-Pro-Xaa5] (Ac-F[Aib][Aib][Aib][Aib]GL[Iva][Aib][Hyp]Q[Aib][Hyp][Aib]P[Phe(ol)]; configuration not given here)	impaired			
Clonostachin				inhibits
